Experimental findings from ChEMBL document CHEMBL1147166, “Structure-activity relationships of methoctramine-related polyamines as muscarinic antagonist: effect of replacing the inner polymethylene chain with cyclic moieties” (Bioorg Med Chem, 2007) are described below.

Structures are written as SMILES. pKi: −log10 of the molar value.

Experiment [1] relates to Mus musculus. As to the kind of experiment: Antinociceptive activity in mouse assessed as licking latency at 0.3 ug, icv after 15 mins by hot plate method. Format: functional.
Experiment [2] concerns Mus musculus. As to the kind of experiment: Antinociceptive activity in mouse assessed as licking latency at 0.1 ug, icv after 30 mins by hot plate method. The format is functional.
For experiment [3], the target named is T1, Muscarinic acetylcholine receptor M2 (Homo sapiens, UniProt P08172).
T1 sequence (P08172 whole entry): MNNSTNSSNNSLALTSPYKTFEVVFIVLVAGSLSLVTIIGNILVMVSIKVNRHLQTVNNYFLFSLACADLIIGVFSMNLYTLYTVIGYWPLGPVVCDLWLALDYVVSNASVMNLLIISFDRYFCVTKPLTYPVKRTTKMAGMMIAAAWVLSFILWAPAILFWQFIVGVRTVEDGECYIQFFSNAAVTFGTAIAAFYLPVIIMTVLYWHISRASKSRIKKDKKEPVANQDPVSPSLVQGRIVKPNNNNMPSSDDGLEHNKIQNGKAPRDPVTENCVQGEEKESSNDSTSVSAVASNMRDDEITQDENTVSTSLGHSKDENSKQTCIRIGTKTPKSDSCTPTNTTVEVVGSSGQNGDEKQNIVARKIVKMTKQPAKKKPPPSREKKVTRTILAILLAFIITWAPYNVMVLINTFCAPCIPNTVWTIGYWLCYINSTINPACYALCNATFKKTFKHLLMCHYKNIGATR
As to the kind of experiment: Displacement of [3H] N-methyl-scopolamine chloride from human muscarinic receptor M2 expressed in CHO cells. Format: cell-based.

Experiment [4] has as its target T2, Muscarinic acetylcholine receptor M5 (Homo sapiens, UniProt P08912).
T2 sequence (P08912 whole entry): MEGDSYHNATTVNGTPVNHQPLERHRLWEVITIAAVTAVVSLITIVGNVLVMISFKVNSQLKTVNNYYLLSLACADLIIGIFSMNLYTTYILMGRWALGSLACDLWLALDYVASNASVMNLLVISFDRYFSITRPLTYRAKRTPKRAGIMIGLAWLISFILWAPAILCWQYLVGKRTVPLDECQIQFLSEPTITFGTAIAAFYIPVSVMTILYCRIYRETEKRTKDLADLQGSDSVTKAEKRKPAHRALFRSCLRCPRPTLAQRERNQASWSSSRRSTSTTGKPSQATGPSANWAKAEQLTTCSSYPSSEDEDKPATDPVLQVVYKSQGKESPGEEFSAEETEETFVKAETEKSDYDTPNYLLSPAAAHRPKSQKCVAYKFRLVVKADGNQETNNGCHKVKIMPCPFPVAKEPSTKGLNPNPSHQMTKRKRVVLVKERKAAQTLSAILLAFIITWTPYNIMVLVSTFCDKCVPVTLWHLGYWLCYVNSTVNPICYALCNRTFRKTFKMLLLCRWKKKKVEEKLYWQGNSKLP
The experiment in a line: Displacement of [3H] N-methyl-scopolamine chloride from human muscarinic receptor M5 expressed in CHO cells. Format: cell-based.

Experiment [5] deals with Mus musculus. As to the kind of experiment: Antinociceptive activity in mouse assessed as licking latency at 0.01 ug, icv after 30 mins by hot plate method. The format is functional.
Experiment [6] deals with Mus musculus. As to the kind of experiment: Antinociceptive activity in mouse assessed as licking latency at 0.3 ug, icv after 45 mins by hot plate method. The format is functional.

As to `COc1ccccc1CNCCCCCCN1CCC(CCC2CCN(CCCCCCNCc3ccccc3OC)CC2)CC1`, the Time in experiment [1] was 23.8 s; in experiment [2], 24.5 s; in experiment [5], 17.1 s; in experiment [6], 20.1 s. The pKi in experiment [3] is 8.22; in experiment [4], 6.77.
